The text below walks through data of patent US9394329B2, “Glucopyranosyl derivatives and their uses in medicine” (Sunshine Lake Pharma Co., Ltd., priority 2013, dated 2016).

One test deals with T1, SGLT-2 (Homo sapiens, UniProt P31639).
T1 construct: expressed in transfected cells
T1 sequence (P31639 1-672): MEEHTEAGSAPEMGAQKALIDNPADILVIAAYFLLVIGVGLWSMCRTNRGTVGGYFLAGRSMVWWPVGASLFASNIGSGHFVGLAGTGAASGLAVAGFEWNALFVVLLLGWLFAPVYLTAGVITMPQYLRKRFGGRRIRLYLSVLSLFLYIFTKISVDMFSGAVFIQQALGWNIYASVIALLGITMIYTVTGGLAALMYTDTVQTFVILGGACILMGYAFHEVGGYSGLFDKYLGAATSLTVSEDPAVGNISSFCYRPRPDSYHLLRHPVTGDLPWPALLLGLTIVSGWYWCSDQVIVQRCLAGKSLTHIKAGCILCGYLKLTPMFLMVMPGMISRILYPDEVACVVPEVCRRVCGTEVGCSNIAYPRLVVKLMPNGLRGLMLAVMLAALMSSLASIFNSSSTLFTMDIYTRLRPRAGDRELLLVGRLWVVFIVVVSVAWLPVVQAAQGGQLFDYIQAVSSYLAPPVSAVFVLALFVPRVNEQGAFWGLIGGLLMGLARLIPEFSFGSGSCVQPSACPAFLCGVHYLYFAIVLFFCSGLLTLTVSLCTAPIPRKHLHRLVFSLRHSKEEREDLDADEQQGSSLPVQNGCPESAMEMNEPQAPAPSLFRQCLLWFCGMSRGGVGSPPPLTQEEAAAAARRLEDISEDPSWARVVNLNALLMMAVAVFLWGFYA
Nature of the test: SGLT-2 activity measurement ([14C]-AMG uptake in CHO cells expressing human SGLT2). The test is classed as cell-based. The following applies: CHO cells expressing human SGLT2, 0.5 μm [14C]-AMG, 37° C. for 1 hour. An excerpt: (§1) The following methods can be used to determine the inhibitory activity of the compounds described in the invention for SGLT-1 and SGLT-2.
(§2) ^14C-AMG solution was purchased from PerkinElmer, Cat. No. NEZ080001MC.
(§3) α-Methylglucoside was purchased from Sigma, Cat. No. M9376-100G.
(§4) N-methyl-D-glucosamine was purchased from Sigma, Cat. No. M2004-100G.
(§5) Phloridzin was purchased from Sigma, Cat. No. P3449-1G.
(§6) 96-Well plate was purchased from Corning, Cat. No. 3903.
(§7) Mock-transfected FIP-in CHO cells (3×10^4 cells) and expressing human SGLT1/SGLT2 CHO cells were seeded into 96-well plates respectively. The cells were incubated for 12 hours. Each well of the 96-well plates was washed with 150 μL of sodium-free buffer once. To each well was added 50 μL of sodium-containing buffer containing test compounds having different concentrations and […] [^14C]-AMG. The incubation mixture was incubated at 37° C. for 1 hour. To each well was added 150 μL of precooled sodium-free buffer to terminate the reaction. The cell pellet was washed with sodium-free buffer three times and the residual liquid in well was removed. To each well was added 20 μL of precooled 100 mM NaOH. The 96-well plates were vibrated at 900 rpm for 5 minutes. Scintillation fluid (80 μL) was added to each well which was then vibrated at 600 rpm for 5 minutes. The amount of ^14C-AMG was quantitatively detected using liquid scintillation.

The target in the next test is T2, SGLT-1 (Homo sapiens, UniProt P13866).
T2 construct: expressed in transfected cells
T2 sequence (P13866 1-664): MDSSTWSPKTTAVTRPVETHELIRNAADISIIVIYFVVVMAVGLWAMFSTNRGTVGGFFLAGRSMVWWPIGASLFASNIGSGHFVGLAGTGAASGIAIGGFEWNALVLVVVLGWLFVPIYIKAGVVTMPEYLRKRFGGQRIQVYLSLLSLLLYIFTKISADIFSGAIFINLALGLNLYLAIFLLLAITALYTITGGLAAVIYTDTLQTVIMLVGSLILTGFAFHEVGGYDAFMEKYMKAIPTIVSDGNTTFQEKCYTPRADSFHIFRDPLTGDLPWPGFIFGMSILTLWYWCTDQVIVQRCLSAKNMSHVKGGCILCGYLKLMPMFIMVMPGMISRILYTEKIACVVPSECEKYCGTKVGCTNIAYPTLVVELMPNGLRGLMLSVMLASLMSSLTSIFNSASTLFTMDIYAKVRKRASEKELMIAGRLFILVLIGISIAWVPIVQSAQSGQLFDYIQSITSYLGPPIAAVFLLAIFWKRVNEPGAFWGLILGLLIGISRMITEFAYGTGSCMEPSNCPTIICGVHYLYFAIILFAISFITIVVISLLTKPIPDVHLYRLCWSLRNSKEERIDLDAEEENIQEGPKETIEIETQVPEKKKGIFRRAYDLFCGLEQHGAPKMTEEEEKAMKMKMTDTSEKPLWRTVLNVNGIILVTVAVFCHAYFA
Nature of the test: SGLT-1 activity measurement ([14C]-AMG uptake in CHO cells expressing human SGLT1). The test is classed as cell-based. The following applies: CHO cells expressing human SGLT1, 0.5 μm [14C]-AMG, 37° C. for 1 hour.
Excerpt: as §1, §2, §3, §4, §5, §6, §7

The term IC50 denotes the concentration at which inhibition is half-maximal. A lower IC50 goes with greater potency in that assay. Turning to `CC(C)(O)[C@@]12CO[C@@](c3ccc(Cl)c(Cc4ccc(OC(F)(F)F)cc4)c3)(O1)[C@H](O)[C@@H](O)[C@@H]2O` [Example 16, (1S,2S,3S,4R,5S)-5-[4-chloro-3-[[4-(trifluoromethoxy)phenyl]methyl]phenyl]-1-(1-hydroxy-1-methyl-ethyl)-6,8-dioxabicyclo[3.2.1]octane-2,3,4-triol], the IC50 was determined as 2.95 nM at SGLT-2 and 1310 nM against SGLT-1.
For `CC(O)[C@@]12CO[C@@](c3ccc(Cl)c(Cc4ccc(OCC(F)(F)F)cc4)c3)(O1)[C@H](O)[C@@H](O)[C@@H]2O` (stereo partly drawn) [Example 17, (1R,2S,3S,4R,5S)-5-[4-Chloro-3-[[4-(2,2,2-trifluoroethoxy)phenyl]methyl]phenyl]-1-(1-hydroxyethyl)-6,8-dioxabicyclo[3.2.1]octane-2,3,4-triol], in that order: 1.22 nM and 820 nM.
For the molecule `CC(C)(O)[C@@]12CO[C@@](c3ccc(Cl)c(Cc4ccc(OCC(F)(F)F)cc4)c3)(O1)[C@H](O)[C@@H](O)[C@@H]2O` [Example 18, (1S,2S,3S,4R,5S)-5-[4-Chloro-3-[[4-(2,2,2-trifluoroethoxyl)phenyl]methyl]phenyl]-1-(1-hydroxy-1-methyl-ethyl)-6,8-dioxabicyclo[3.2.1]octane-2,3,4-triol], the values for the half-maximal inhibitory concentration (IC50) on SGLT-2 and against SGLT-1 were 3.66 nM and 350 nM, respectively.
In the case of `CCOc1ccc(Cc2cc([C@]34OC[C@](C(C)O)(O3)[C@@H](O)[C@H](O)[C@H]4O)ccc2Cl)cc1F` (stereo partly drawn) [Example 19, (1R,2S,3S,4R,5S)-5-[4-chloro-3-[(4-ethoxy-3-fluoro-phenyl)methyl]phenyl]-1-(1-hydroxyethyl)-6,8-dioxabicyclo[3.2.1]octane-2,3,4-triol], the IC50 worked out at 1.27 nM against SGLT-2 and 180 nM on SGLT-1.
As for `CCOc1ccc(Cc2cc([C@]34OC[C@](C(C)(C)O)(O3)[C@@H](O)[C@H](O)[C@H]4O)ccc2Cl)cc1F` [Example 20, (1S,2S,3S,4R,5S)-5-[4-Chloro-3-[(4-ethoxy-3-fluoro-phenyl)methyl]phenyl]-1-(1-hydroxy-1-methyl-ethyl)-6,8-dioxabicyclo[3.2.1]octane-2,3,4-triol], the IC50 stood at 0.85 nM at SGLT-2 and 170 nM on SGLT-1.
For `COc1ccc(Cc2cc([C@]34OC[C@](C(C)O)(O3)[C@@H](O)[C@H](O)[C@H]4O)ccc2Cl)c(F)c1F` (stereo partly drawn) [Example 21, (1R,2S,3S,4R,5S)-5-[4-Chloro-3-[(2,3-difluoro-4-methoxy-phenyl)methyl]phenyl]-1-(1-hydroxyethyl)-6,8-dioxabicyclo[3.2.1]octane-2,3,4-triol], in that order: 0.81 nM and 120 nM.
On to `COc1ccc(Cc2cc([C@]34OC[C@](C(C)(C)O)(O3)[C@@H](O)[C@H](O)[C@H]4O)ccc2Cl)c(F)c1F` [Example 22, (1S,2S,3S,4R,5S)-5-[4-Chloro-3-[(2,3-difluoro-4-methoxy-phenyl)methyl]phenyl]-1-(1-hydroxy-1-methyl-ethyl)-6,8-dioxabicyclo[3.2.1]octane-2,3,4-triol], for which the results for the concentration for half-maximal inhibition (IC50) on SGLT-2 and against SGLT-1 were 1.84 nM and 1040 nM, respectively.
The matching figures for `CCOc1ccc(Cc2cc([C@]34OC[C@](C(C)O)(O3)[C@@H](O)[C@H](O)[C@H]4O)ccc2Cl)c(F)c1F` (stereo partly drawn) [Example 23, (1R,2S,3S,4R,5S)-5-[4-Chloro-3-[(4-ethoxy-2,3-difluoro-phenyl)methyl]phenyl]-1-(1-hydroxyethyl)-6,8-dioxabicyclo[3.2.1]octane-2,3,4-triol]: 2.28 nM and 560 nM.
For `CC(C)(O)[C@@]12CO[C@@](c3ccc(Cl)c(Cc4ccc(OCC(F)F)cc4)c3)(O1)[C@H](O)[C@@H](O)[C@@H]2O` [Example 25, (1S,2S,3S,4R,5S)-5-[4-Chloro-3-[[4-(2,2-difluoroethoxyl)phenyl]methyl]phenyl]-1-(1-hydroxy-1-methyl-ethyl)-6,8-dioxabicyclo[3.2.1]octane-2,3,4-triol], in that order: 3.48 nM and 5560 nM.
The matching figures for `CCOc1ccc(Cc2cc([C@]34OC[C@](C(C)O)(O3)[C@H](O)[C@H](O)[C@H]4O)ccc2Cl)cc1` (stereo partly drawn) [Example 28, (1R,2R,3S,4R,5S)-5-[4-Chloro-3-[(4-ethoxyphenyl)methyl]phenyl]-1-(1-hydroxyethyl)-6,8-dioxabicyclo[3.2.1]octane-2,3,4-triol]: 12.6 nM and 3400 nM.
